Laboratory results taken from the supplement of paper PMC11451515.

Tested on: P12-Ichikawa
Assay: cell viability relative to DMSO control; higher = less cytotoxic
Settings: 48 h
How it was run: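 In 1536-well plates, 5 μl of leukemia cells were seeded per well: 500 cells/well for NOMO1 or SEM and 1000 cells/well for P12-Ichikawa. Each line had first been adapted for at least four passages in each medium. Library compounds in DMSO were pin-dosed at 11 threefold concentrations between 47 μM and 0.79 nM, and CellTiter-Glo One luminescence was read after 48 h at 37°C. Viability is a per-plate percentage relative to DMSO wells, with cell-free wells as background.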

[1] = HPLM + 10% dialyzed FBS, 0.000781 µM
[2] = HPLM + 10% dialyzed FBS, 0.00234 µM
[3] = HPLM + 10% dialyzed FBS, 0.00702 µM
[4] = HPLM + 10% dialyzed FBS, 0.0211 µM
[5] = HPLM + 10% dialyzed FBS, 0.0632 µM
[6] = HPLM + 10% dialyzed FBS, 0.19 µM
[7] = HPLM + 10% dialyzed FBS, 0.569 µM
[8] = HPLM + 10% dialyzed FBS, 1.71 µM
[9] = HPLM + 10% dialyzed FBS, 5.12 µM
[10] = HPLM + 10% dialyzed FBS, 15.4 µM
[11] = HPLM + 10% dialyzed FBS, 46.1 µM
[12] = RPMI 5 mM glucose + 10% dialyzed FBS, 0.000781 µM
[13] = RPMI 5 mM glucose + 10% dialyzed FBS, 0.00234 µM
[14] = RPMI 5 mM glucose + 10% dialyzed FBS, 0.00702 µM
[15] = RPMI 5 mM glucose + 10% dialyzed FBS, 0.0211 µM
[16] = RPMI 5 mM glucose + 10% dialyzed FBS, 0.0632 µM
[17] = RPMI 5 mM glucose + 10% dialyzed FBS, 0.19 µM
[18] = RPMI 5 mM glucose + 10% dialyzed FBS, 0.569 µM
[19] = RPMI 5 mM glucose + 10% dialyzed FBS, 1.71 µM
[20] = RPMI 5 mM glucose + 10% dialyzed FBS, 5.12 µM
[21] = RPMI 5 mM glucose + 10% dialyzed FBS, 15.4 µM
[22] = RPMI 5 mM glucose + 10% dialyzed FBS, 46.1 µM
[23] = RPMI 5 mM glucose + 10% FBS, 0.000781 µM
[24] = RPMI 5 mM glucose + 10% FBS, 0.00234 µM
[25] = RPMI 5 mM glucose + 10% FBS, 0.00702 µM
[26] = RPMI 5 mM glucose + 10% FBS, 0.0211 µM
[27] = RPMI 5 mM glucose + 10% FBS, 0.0632 µM
[28] = RPMI 5 mM glucose + 10% FBS, 0.19 µM
[29] = RPMI 5 mM glucose + 10% FBS, 0.569 µM
[30] = RPMI 5 mM glucose + 10% FBS, 1.71 µM
[31] = RPMI 5 mM glucose + 10% FBS, 5.12 µM
[32] = RPMI 5 mM glucose + 10% FBS, 15.4 µM
[33] = RPMI 5 mM glucose + 10% FBS, 46.1 µM

Structure (SMILES)	cell viability [1] [%]	cell viability [2] [%]	cell viability [3] [%]	cell viability [4] [%]	cell viability [5] [%]	cell viability [6] [%]	cell viability [7] [%]	cell viability [8] [%]	cell viability [9] [%]	cell viability [10] [%]	cell viability [11] [%]	cell viability [12] [%]	cell viability [13] [%]	cell viability [14] [%]	cell viability [15] [%]	cell viability [16] [%]	cell viability [17] [%]	cell viability [18] [%]	cell viability [19] [%]	cell viability [20] [%]	cell viability [21] [%]	cell viability [22] [%]	cell viability [23] [%]	cell viability [24] [%]	cell viability [25] [%]	cell viability [26] [%]	cell viability [27] [%]	cell viability [28] [%]	cell viability [29] [%]	cell viability [30] [%]	cell viability [31] [%]	cell viability [32] [%]	cell viability [33] [%]
C=C[C@H]1CN2CCC1C[C@@H]2C(O)c1ccnc2ccc(OC)cc12 (stereo not given in full)	112	131	117	119	127	122	123	133	123	122	103	125	121	120	128	145	128	136	133	123	135	124											
COc1ccc(C(=O)CC2(O)C(=O)Nc3c(Cl)ccc(Cl)c32)cc1 (stereo not given)	102	114	114	114	117	124	120	106	55	19.6	14.5	98.9	116	126	115	120	128	122	105	81.9	25.4	27.5	107	104	117	109	116	125	118	106	55.8	14.1	12.9
O=C(c1ccccc1)c1ccc2n1CCC2C(=O)O (stereo not given)	113	111	114	111	112	106	109	91.7	75.8	64.6	71.5	104	108	106	107	99.1	108	98.6	93.6	72.6	52.8	61.8	127	117	124	119	120	113	117	96.3	84.5	57.3	62.8
CC(C(=O)O)c1ccc2c(c1)CC(=O)c1ccccc1S2 (stereo not given)	104	108	107	110	118	106	115	101	111	37.5	25.1	102	101	101	99.2	99.5	107	104	109	104	31.7	21.2	99.3	117	101	104	116	115	118	109	106	24	18.8
CCOC(=O)C(C)OC1=CC=CC2=C1\C=C/N(CC(=O)NC3=CC=C4OCCOC4=C3)C2=O (stereo not given)	89.3	97.6	97.9	53.9	101	106	95.5	97.5	90.5	101	108	88.6	88.2	91.5	88.5	85.7	98.2	92.2	89.8	90.4	92.5	101	89.6	97.6	97.9	91.7	98.6	103	103	91.2	87.2	111	108
CN1\C=N/C2=CC=C(NC3=CC(=CC=C3C)NC(=O)C4=CC(=CC=C4)C(C)(C)C#N)C=C2C1=O	97.1	96.9	101	97.8	101	94.6	87	87.4	68.5	69.3	63.2	97.5	104	94	102	99.5	98.7	93.3	84.8	73.4	64.1	48.1	90.4	98.7	99	95	96.7	93	83.6	81.3	59.6	58.4	44.4
Nc1c2c(nc3ccccc13)CCCC2	119	119	112	111	118	120	107	68.4	109	110	99	106	117	119	118	86.6	109	117	84.3	102	102	79.1	118	124	128	117	120	115	124	64.9	109	113	89.2
C[C@]12CC[C@H]3[C@@H](CCC4=CC(=O)CC[C@@H]43)[C@@H]1CC[C@@H]2OC(=O)CCc1ccccc1	116	115	117	115	113	121	120	120	121	119	117	104	113	112	106	115	119	113	123	112	114	104											
Nc1ccc([S+](=O)([O-])Nc2ccnn2-c2ccccc2)cc1	105	103	103	109	111	102	105	106	105	110	107	86.1	98.7	97.7	92.9	105	99	98.2	112	103	106	96.7	95.9	101	98.3	96	108	115	108	106	100	109	107
CCCCN(CCCC)CC(O)c1cc(Cl)cc2c1-c1ccc(Cl)cc1/C2=C/c1ccc(Cl)cc1 (stereo not given)	97.6	99.8	114	107	107	111	109	117	104	121	117	83.9	99.7	101	107	96.9	98.1	97.5	103	104	107	107	98.6	102	107	98	102	117	104	113	97.5	109	82.5
CCCCCNC(=O)N1CCC(CN(Cc2ccc(Cl)cc2)Cc2ccc([N+](=O)[O-])s2)C1 (stereo not given)	113	127	119	121	111	114	111	110	103	96.9	85.6	123	104	104	117	111	113	109	95.2	101	94.3	78.9	108	116	113	107	114	100	107	97	103	90.4	74.2
O=C(O)CCNC(=O)c1ccc(/N=N/c2ccc(O)c(C(=O)O)c2)cc1	115	116	114	114	110	120	109	115	112	110	113																						
O=C(O)c1cc(/N=N/c2ccc([S+](=O)([O-])Nc3ccccn3)cc2)ccc1O	108	107	112	102	113	116	116	107	106	98.6	92.3	103	114	110	102	120	114	119	120	110	102	102	108	111	105	110	119	115	114	122	113	111	108
CN1CC(=O)N2[C@H](c3ccc4c(c3)OCO4)c3[nH]c4ccccc4c3C[C@@H]2C1=O	100	99.2	100	97.9	104	96.6	101	91.6	89.9	89.6	78.8	89.8	92	92.6	89.6	90.9	92.1	85.1	87	83.6	81	78.5	92.4	96.8	90.4	92.6	95	103	90	94.1	82.7	96.9	79.6
Cc1ccc([S+](=O)([O-])OCC(=O)Nc2ccc(C(=O)O)c(O)c2)cc1	106	117	122	126	126	133	120	136	121	102	8.9																						
O=C(O)c1cccnc1Nc1cccc(C(F)(F)F)c1	112	111	111	118	119	128	112	131	129	129	124	104	108	115	112	112	119	115	113	121	131	117	115	117	113	120	124	143	129	132	141	138	108
CCCCOCCOc1nc(-c2ccc(C(=O)O)c(F)c2)sc1C	119	116	112	116	119	112	115	112	107	94.5	110	123	127	124	121	116	114	118	105	111	85	113	124	117	118	120	120	110	108	100	99.7	86.5	97.6
